Legend:
[1] = system: antibodies in sera from SARS patients (sera 1a, 1b, 2, 6, 37, 62, London, SARS-yellow, SARS-green); assay type: binding, human; parameters: Binding of serum 6 to linear peptides of protein X1 of SARS-CoV Urbani / Binding of serum 37 to linear peptides of protein X1 of SARS-CoV Urbani / Binding of serum 6 to looped/cyclic peptide (PEPSCAN-ELISA) / Binding of serum 37 to looped/cyclic peptide (PEPSCAN-ELISA) / Binding of serum 37 to looped/cyclic peptides of protein X1 of SARS-CoV Urbani / Binding of serum 6 to linear peptides of protein X2 / Binding of serum 37 to linear peptides of protein X2 / Binding of serum 37 to looped/cyclic peptides of protein X2 of SARS-CoV Urbani / Binding of serum 6 to linear peptides of protein M of SARS-CoV Urbani / Binding of serum 37 to linear peptides of protein M of SARS-CoV Urbani / Binding of serum 6 to looped/cyclic peptides of protein M of SARS-CoV Urbani / Binding of serum 37 to looped/cyclic peptides of protein M of SARS-CoV Urbani / Binding of serum 6 to linear peptides of protein X3 of SARS-CoV Urbani / Binding of serum 37 to linear peptides of protein X3 of SARS-CoV Urbani / Binding of serum 37 to looped/cyclic peptides of protein X3 of SARS-CoV Urbani / Binding of serum 6 to linear peptides of protein X4 of SARS-CoV Urbani / Binding of serum 37 to linear peptides of protein X4 of SARS-CoV Urbani / Binding of serum 37 to looped/cyclic peptides of protein X4 of SARS-CoV Urbani / Binding of serum 6 to linear peptides of protein X5 of SARS-CoV Urbani / Binding of serum 37 to linear peptides of protein X5 of SARS-CoV Urbani / Binding of serum 37 to looped/cyclic peptides of protein X5 of SARS-CoV Urbani / Binding of serum 6 to linear peptides of protein N of SARS-CoV Urbani / Binding of serum 37 to linear peptides of protein N of SARS-CoV Urbani / Binding of serum 6 to linear peptide (PEPSCAN-ELISA) / Binding of serum 1a to looped/cyclic peptides of protein N of SARS-CoV Urbani / Binding of serum 1b to looped/cyclic peptides of protein N of SARS-CoV Urbani / Binding of serum 2 to looped/cyclic peptides of protein N of SARS-CoV Urbani / Binding of serum 6 to looped/cyclic peptides of protein N of SARS-CoV Urbani / Binding of serum 37 to looped/cyclic peptides of protein N of SARS-CoV Urbani / Binding of serum 62 to looped/cyclic peptides of protein N of SARS-CoV Urbani / Binding of serum London to looped/cyclic peptides of protein N of SARS-CoV Urbani / Binding of serum SARS-green to looped/cyclic peptides of protein N of SARS-CoV Urbani: unit not given here
[2] = system: control sera (pooled serum of ten healthy LUMC hospital workers; commercial negative donor pooled serum from the Dutch bloodbank); assay type: binding, human
[3] = system: rabbit serum obtained by immunizing a rabbit with the SARS-CoV strain Frankfurt 1; assay type: binding; parameters: Binding of a rabbit serum to linear peptides / Binding of a rabbit serum to looped peptides / Rabbit serum linear peptides / Rabbit serum looped peptides / Binding of a rabbit serum to linear peptides of protein N of SARS-CoV Urbani (Rabbit serum linear peptides) / Binding of a rabbit serum to looped/cyclic peptides of protein N of SARS-CoV Urbani (Rabbit serum looped peptides): unit not given here

HITVSQIQLSLLKVT
Binding of serum 1a to linear peptides of protein X2 [1]: 0.6 | Binding of serum 1a to looped/cyclic peptides of protein X2 of SARS-CoV Urbani [1]: 0.5 | Binding of serum 1b to linear peptides of protein X2 [1]: 0.5 | Binding of serum 1b to looped/cyclic peptides of protein X2 of SARS-CoV Urbani [1]: 0.5 | Binding of serum 2 to linear peptides of protein X2 [1]: 0.5 | Binding of serum 2 to looped/cyclic peptides of protein X2 of SARS-CoV Urbani [1]: 0.5 | Binding of serum 6 to linear peptides of protein X2 [1]: 0.5 | Binding of serum 6 to looped/cyclic peptides of protein X2 of SARS-CoV Urbani [1]: 0.4 | Binding of serum 37 to linear peptides of protein X2 [1]: 0.7 | Binding of serum 37 to looped/cyclic peptides of protein X2 of SARS-CoV Urbani [1]: 0.5 | Binding of serum 62 to linear peptides of protein X2 [1]: 0.5 | Binding of serum 62 to looped/cyclic peptides of protein X2 of SARS-CoV Urbani [1]: 0.6 | Binding of serum London to linear peptides of protein X2 [1]: 0.4 | Binding of serum London to looped/cyclic peptides of protein X2 of SARS-CoV Urbani [1]: 0.8 | Binding of serum SARS-green to linear peptides of protein X2 [1]: 0.2 | Binding of serum SARS-green to looped/cyclic peptides of protein X2 of SARS-CoV Urbani [1]: 0.4 | Binding of serum SARS-yellow to linear peptides of protein X2 [1]: 0.8 | Binding of serum SARS-yellow to looped/cyclic peptides of protein X2 of SARS-CoV Urbani [1]: 0.6 | Binding of Control Serum Blood-Bank to Looped peptides [2]: 0.6 | Binding of Control serum Blood-bank to linear peptides [2]: 0.6 | Binding of Control serum LUMC to linear peptides [2]: 0.8 | Binding of Control serum LUMC to looped peptides [2]: 0.5 | Binding of a rabbit serum to linear peptides [3]: 0.7 | Binding of a rabbit serum to looped peptides [3]: 0.4

HKLLQTLVLKMLHSS
Binding of serum 1a to linear peptides of protein X2 [1]: 0.5 | Binding of serum 1a to looped/cyclic peptides of protein X2 of SARS-CoV Urbani [1]: 0.6 | Binding of serum 1b to linear peptides of protein X2 [1]: 0.5 | Binding of serum 1b to looped/cyclic peptides of protein X2 of SARS-CoV Urbani [1]: 0.6 | Binding of serum 2 to linear peptides of protein X2 [1]: 0.4 | Binding of serum 2 to looped/cyclic peptides of protein X2 of SARS-CoV Urbani [1]: 0.4 | Binding of serum 6 to linear peptides of protein X2 [1]: 0.2 | Binding of serum 6 to looped/cyclic peptides of protein X2 of SARS-CoV Urbani [1]: 0.4 | Binding of serum 37 to linear peptides of protein X2 [1]: 0.5 | Binding of serum 37 to looped/cyclic peptides of protein X2 of SARS-CoV Urbani [1]: 0.5 | Binding of serum 62 to linear peptides of protein X2 [1]: 0.5 | Binding of serum 62 to looped/cyclic peptides of protein X2 of SARS-CoV Urbani [1]: 0.7 | Binding of serum London to linear peptides of protein X2 [1]: 0.4 | Binding of serum London to looped/cyclic peptides of protein X2 of SARS-CoV Urbani [1]: 0.3 | Binding of serum SARS-green to linear peptides of protein X2 [1]: 0.4 | Binding of serum SARS-green to looped/cyclic peptides of protein X2 of SARS-CoV Urbani [1]: 0.3 | Binding of serum SARS-yellow to linear peptides of protein X2 [1]: 0.5 | Binding of serum SARS-yellow to looped/cyclic peptides of protein X2 of SARS-CoV Urbani [1]: 0.5 | Binding of Control Serum Blood-Bank to Looped peptides [2]: 0.7 | Binding of Control serum Blood-bank to linear peptides [2]: 0.6 | Binding of Control serum LUMC to linear peptides [2]: 0.4 | Binding of Control serum LUMC to looped peptides [2]: 0.7 | Binding of a rabbit serum to linear peptides [3]: 0.2 | Binding of a rabbit serum to looped peptides [3]: 0.4

HLVDFQVTIAEILII
Binding of serum 1a to linear peptides of protein X3 of SARS-CoV Urbani [1]: 0.8 | Binding of serum 1a to looped/cyclic peptides of protein X3 of SARS-CoV Urbani [1]: 0.7 | Binding of serum 1b to linear peptides of protein X3 of SARS-CoV Urbani [1]: 0.6 | Binding of serum 1b to looped/cyclic peptides of protein X3 of SARS-CoV Urbani [1]: 0.4 | Binding of serum 2 to linear peptides of protein X3 of SARS-CoV Urbani [1]: 0.7 | Binding of serum 2 to looped/cyclic peptides of protein X3 of SARS-CoV Urbani [1]: 0.6 | Binding of serum 6 to linear peptides of protein X3 of SARS-CoV Urbani [1]: 0.5 | Binding of serum 6 to looped/cyclic peptides of protein X3 of SARS-CoV Urbani [1]: 0.4 | Binding of serum 37 to linear peptides of protein X3 of SARS-CoV Urbani [1]: 0.7 | Binding of serum 37 to looped/cyclic peptides of protein X3 of SARS-CoV Urbani [1]: 0.6 | Binding of serum 62 to linear peptides of protein X3 of SARS-CoV Urbani [1]: 0.6 | Binding of serum 62 to looped/cyclic peptides of protein X3 of SARS-CoV Urbani [1]: 0.7 | Binding of serum London to linear peptides of protein X3 of SARS-CoV Urbani [1]: 0.6 | Binding of serum London to looped/cyclic peptides of protein X3 of SARS-CoV Urbani [1]: 0.2 | Binding of serum SARS-green to linear peptides of protein X3 of SARS-CoV Urbani [1]: 0.4 | Binding of serum SARS-green to looped/cyclic peptides of protein X3 of SARS-CoV Urbani [1]: 0.2 | Binding of serum SARS-yellow to linear peptides of protein X3 of SARS-CoV Urbani [1]: 0.5 | Binding of serum SARS-yellow to looped/cyclic peptides of protein X3 of SARS-CoV Urbani [1]: 0.7 | Binding of Control Serum Blood-Bank to Looped peptides of the protein X3 of SARS-CoV Urbani [2]: 0.9 | Binding of Control serum Blood-bank to linear peptides of the protein X3 of SARS-CoV Urbani [2]: 0.8 | Binding of Control serum LUMC to linear peptides of the protein X3 of SARS-CoV Urbani [2]: 0.7 | Binding of Control serum LUMC to looped peptides of the protein X3 of SARS-CoV Urbani [2]: 0.7 | Rabbit serum linear peptides [3]: 0.3 | Rabbit serum looped peptides [3]: 0.3
